Assay results from patent publication US20080009418A1, “Selective Inhibitors” (Alchemia LTD., priority 2004, published 2008).

How the values were obtained:
Mouse urotensin (mUR2) = target: T1, Mouse urotensin (mUR2) (Mus musculus, UniProt Q8VIH9); experiment: Radioligand binding, mouse urotensin mUR2 membranes, FlashPlate, [125I]-Urotensin II; details: compound at 10 μM, [125I]-Urotensin II
T1 construct: purchased Perkin Elmer Biosignal
T1 sequence (Q8VIH9 1-385): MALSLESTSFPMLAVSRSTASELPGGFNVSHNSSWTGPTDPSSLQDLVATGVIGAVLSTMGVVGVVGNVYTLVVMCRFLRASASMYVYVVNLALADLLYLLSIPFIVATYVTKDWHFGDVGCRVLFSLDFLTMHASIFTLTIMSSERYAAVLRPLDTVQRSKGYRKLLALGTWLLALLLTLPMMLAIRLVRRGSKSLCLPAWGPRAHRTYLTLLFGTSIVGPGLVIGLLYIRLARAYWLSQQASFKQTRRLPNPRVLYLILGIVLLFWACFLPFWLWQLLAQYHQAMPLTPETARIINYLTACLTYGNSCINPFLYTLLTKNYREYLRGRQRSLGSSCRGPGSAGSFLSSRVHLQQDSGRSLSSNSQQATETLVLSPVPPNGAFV
In short: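 Cloned mouse urotensin (mUR2) receptor membranes from Perkin Elmer Biosignal were immobilized in FlashPlate microplates using a proprietary coating. Each well got 19.5 μl buffer, then 0.5 μl of DMSO, reference ligand, or compound. Adding 5 μl of [125I]-Urotensin II, diluted to 5× final concentration in binding buffer, started binding. Plates were sealed with TopSeal-A and incubated 1 hour at room temperature in the dark. Wells were counted for 30 seconds each on a TopCount after a 60-second delay, and percentage inhibition was calculated.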

Human κ-Opioid (KOP) = target: T2, Human κ-Opioid (KOP) (Homo sapiens, UniProt P41145); experiment: Radioligand binding, human κ-opioid (KOP) membranes, filtration, [3H]-Diprenorphine; details: compound at 10 μM, [3H]-Diprenorphine
T2 construct: purchased Perkin Elmer Biosignal
T2 sequence (P41145 whole entry): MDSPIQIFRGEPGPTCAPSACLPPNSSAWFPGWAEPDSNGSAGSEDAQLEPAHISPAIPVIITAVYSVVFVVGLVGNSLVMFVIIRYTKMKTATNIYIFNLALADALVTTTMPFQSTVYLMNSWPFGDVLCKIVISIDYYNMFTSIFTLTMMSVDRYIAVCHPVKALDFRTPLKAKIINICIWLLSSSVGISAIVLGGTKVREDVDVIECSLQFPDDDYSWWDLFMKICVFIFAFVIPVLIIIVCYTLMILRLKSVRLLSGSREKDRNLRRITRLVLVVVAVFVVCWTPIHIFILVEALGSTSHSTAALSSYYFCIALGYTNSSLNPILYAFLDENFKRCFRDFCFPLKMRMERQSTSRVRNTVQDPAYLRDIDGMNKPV
In short: (§1)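 Filtration binding on cloned human receptor membranes (1 Unit/well), [125I]-Substance P for NK1 and [3H]-Diprenorphine for KOP, 1 h at room temperature. Filters PEI-presoaked, washed with cold 50 mM Tris-HCl pH 7.4, counted by scintillation; percent inhibition calculated, reference ligand defining non-specific binding.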

Human Melanocortin (MC3) = target: T3, Human Melanocortin (MC3) (Homo sapiens, UniProt P41968); experiment: Radioligand binding, human melanocortin MC3 membranes, FlashPlate, [125I]-NDP-αMSH; details: compound at 10 μM, [125I]-NDP-αMSH
T3 construct: purchased Perkin Elmer Biosignal
T3 sequence (P41968 whole entry): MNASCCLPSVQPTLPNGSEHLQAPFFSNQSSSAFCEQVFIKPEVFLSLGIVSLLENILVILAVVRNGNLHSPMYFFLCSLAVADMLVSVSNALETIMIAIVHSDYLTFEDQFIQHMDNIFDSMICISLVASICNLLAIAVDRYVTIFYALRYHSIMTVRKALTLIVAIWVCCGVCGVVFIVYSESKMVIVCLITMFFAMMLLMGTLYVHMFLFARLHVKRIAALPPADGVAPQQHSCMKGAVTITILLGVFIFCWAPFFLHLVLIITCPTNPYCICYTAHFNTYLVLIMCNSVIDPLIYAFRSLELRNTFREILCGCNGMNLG
In short: (§2)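 Cloned human receptor membranes were coated onto FlashPlate wells and incubated with radioligand and compound (added from a 0.5 mM DMSO daughter plate) for 1 hour at room temperature in the dark. Scintillation counting gave percent inhibition, with DMSO defining total and reference ligand defining non-specific binding.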

Human melanocortin (MC5) = target: T4, Human melanocortin (MC5) (Homo sapiens, UniProt P33032); experiment: Radioligand binding, human melanocortin MC5 membranes, FlashPlate, [125I]-NDP-αMSH; details: compound at 10 μM, [125I]-NDP-αMSH
T4 construct: purchased Perkin Elmer Biosignal
T4 sequence (P33032 whole entry): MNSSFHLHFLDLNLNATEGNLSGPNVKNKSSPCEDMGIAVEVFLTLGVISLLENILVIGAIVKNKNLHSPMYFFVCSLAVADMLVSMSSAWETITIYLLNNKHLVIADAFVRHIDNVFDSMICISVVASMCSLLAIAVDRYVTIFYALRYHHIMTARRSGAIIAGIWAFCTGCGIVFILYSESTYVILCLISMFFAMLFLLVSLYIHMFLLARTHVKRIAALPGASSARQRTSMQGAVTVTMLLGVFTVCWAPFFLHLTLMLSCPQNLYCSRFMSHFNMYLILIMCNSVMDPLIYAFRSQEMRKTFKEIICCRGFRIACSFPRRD
In short: as §2

Human μ-opioid (MOP) = target: T5, Human μ-opioid (MOP) (Homo sapiens, UniProt P35372); experiment: Radioligand binding, human μ-opioid (MOP) membranes, FlashPlate, [3H]-Naloxone; details: compound at 10 μM, [3H]-Naloxone
T5 construct: purchased Perkin Elmer Biosignal
T5 sequence (P35372 whole entry): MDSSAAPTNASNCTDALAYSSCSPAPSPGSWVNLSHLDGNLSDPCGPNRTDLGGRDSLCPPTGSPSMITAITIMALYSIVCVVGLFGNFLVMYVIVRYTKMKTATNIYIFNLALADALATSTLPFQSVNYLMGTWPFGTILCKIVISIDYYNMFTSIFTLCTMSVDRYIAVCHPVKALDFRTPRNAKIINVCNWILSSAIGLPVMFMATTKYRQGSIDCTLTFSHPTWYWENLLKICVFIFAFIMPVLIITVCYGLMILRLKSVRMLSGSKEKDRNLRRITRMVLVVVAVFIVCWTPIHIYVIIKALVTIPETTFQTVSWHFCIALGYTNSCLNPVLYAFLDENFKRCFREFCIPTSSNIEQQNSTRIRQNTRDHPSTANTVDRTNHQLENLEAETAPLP
In short: as §2

[1] = target: T6, Human melanin-concentrating hormone (MCH1) (Homo sapiens, UniProt Q99705); experiment: Radioligand binding, human melanin-concentrating hormone MCH1 membranes, FlashPlate, [125I]-S36057; details: compound at 10 μM; for A6: inhibition of radioligand binding, human melanin-concentrating hormone (MCH1): [125I]-S36057
T6 construct: purchased Perkin Elmer Biosignal
T6 sequence (Q99705 whole entry): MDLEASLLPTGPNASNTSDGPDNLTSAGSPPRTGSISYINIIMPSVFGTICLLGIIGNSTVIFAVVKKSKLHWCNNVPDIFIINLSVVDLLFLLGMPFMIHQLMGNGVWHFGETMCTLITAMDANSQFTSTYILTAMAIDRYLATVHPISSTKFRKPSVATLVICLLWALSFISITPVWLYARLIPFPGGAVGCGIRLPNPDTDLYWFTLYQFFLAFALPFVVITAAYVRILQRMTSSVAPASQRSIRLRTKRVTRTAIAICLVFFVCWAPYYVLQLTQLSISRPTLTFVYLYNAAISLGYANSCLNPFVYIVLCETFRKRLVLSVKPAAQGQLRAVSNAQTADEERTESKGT
In short: as §2

Human neurokinin (NK1) = target: T7, Human neurokinin (NK1) (Homo sapiens, UniProt P25103); experiment: Radioligand binding, human neurokinin NK1 membranes, filtration, [125I]-Substance P; details: compound at 10 μM, [125I]-Substance P
T7 construct: purchased Perkin Elmer Biosignal
T7 sequence (P25103 whole entry): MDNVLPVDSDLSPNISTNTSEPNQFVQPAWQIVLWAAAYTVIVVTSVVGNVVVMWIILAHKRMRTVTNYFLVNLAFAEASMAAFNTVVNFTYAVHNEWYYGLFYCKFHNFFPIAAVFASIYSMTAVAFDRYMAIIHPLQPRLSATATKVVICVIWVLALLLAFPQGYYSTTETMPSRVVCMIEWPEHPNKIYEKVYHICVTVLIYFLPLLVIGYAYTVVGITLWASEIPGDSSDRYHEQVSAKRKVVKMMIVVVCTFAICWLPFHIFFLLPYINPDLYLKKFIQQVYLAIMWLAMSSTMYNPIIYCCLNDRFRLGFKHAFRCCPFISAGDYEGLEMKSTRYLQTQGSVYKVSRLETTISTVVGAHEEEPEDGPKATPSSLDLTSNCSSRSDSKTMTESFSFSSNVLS
In short: as §1

[2] = target: T8, Human neuropeptide Y (NPY-Y1) (Homo sapiens, UniProt P25929); experiment: Radioligand binding, human neuropeptide Y NPY-Y1 membranes, FlashPlate, [125I]-PYY; details: compound at 10 μM, [125I]-PYY
T8 construct: purchased Perkin Elmer Biosignal
T8 sequence (P25929 1-384): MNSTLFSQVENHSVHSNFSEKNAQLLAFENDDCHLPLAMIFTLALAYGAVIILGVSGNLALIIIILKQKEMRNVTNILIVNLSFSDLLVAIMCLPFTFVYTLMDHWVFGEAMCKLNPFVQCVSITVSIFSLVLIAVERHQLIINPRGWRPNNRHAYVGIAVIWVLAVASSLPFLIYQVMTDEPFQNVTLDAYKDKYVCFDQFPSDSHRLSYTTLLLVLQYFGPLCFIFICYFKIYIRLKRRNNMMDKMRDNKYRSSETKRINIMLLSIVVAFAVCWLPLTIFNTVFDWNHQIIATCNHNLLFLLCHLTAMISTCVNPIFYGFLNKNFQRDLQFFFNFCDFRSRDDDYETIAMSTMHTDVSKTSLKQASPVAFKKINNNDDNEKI
In short: as §2

Human Melanocortin (MC4) = target: T9, Human Melanocortin (MC4) (Homo sapiens, UniProt P32245); experiment: Radioligand binding, human melanocortin MC4 membranes, FlashPlate, [125I]-NDP-αMSH; details: compound at 10 μM, [125I]-NDP-αMSH
T9 construct: purchased Perkin Elmer Biosignal
T9 sequence (P32245 whole entry): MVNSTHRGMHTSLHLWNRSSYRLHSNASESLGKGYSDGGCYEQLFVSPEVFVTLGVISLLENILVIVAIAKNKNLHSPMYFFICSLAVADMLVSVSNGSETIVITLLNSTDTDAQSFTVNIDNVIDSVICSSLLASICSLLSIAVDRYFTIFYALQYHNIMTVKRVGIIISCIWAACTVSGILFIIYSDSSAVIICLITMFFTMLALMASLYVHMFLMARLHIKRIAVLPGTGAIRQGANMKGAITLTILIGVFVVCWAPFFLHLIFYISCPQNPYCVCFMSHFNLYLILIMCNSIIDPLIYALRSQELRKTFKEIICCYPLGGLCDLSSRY
In short: as §2

Human δ-opioid (DOP) = target: T10, Human δ-opioid (DOP) (Homo sapiens, UniProt P41143); experiment: Radioligand binding, human δ-opioid (DOP) membranes, FlashPlate, [3H]-Bremazocine; details: compound at 10 μM, [3H]-Bremazocine
T10 construct: purchased Perkin Elmer Biosignal
T10 sequence (P41143 whole entry): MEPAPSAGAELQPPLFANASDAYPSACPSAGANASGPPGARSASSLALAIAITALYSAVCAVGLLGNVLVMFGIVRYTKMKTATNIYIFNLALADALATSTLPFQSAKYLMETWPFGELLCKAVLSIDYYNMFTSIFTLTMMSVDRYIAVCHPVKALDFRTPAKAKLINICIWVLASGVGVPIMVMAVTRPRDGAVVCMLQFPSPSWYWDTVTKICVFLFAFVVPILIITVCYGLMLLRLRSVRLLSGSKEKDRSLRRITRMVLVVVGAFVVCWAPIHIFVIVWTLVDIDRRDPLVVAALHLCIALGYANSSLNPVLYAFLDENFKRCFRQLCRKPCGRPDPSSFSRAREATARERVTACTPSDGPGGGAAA
In short: as §2

Human opioid (ORL1) = target: T11, Human opioid (ORL1) (Homo sapiens, UniProt P41146); experiment: Radioligand binding, human opioid ORL1 membranes, FlashPlate, [125I]-Nociceptin; details: compound at 10 μM, [125I]-Nociceptin
T11 construct: purchased Perkin Elmer Biosignal
T11 sequence (P41146 whole entry): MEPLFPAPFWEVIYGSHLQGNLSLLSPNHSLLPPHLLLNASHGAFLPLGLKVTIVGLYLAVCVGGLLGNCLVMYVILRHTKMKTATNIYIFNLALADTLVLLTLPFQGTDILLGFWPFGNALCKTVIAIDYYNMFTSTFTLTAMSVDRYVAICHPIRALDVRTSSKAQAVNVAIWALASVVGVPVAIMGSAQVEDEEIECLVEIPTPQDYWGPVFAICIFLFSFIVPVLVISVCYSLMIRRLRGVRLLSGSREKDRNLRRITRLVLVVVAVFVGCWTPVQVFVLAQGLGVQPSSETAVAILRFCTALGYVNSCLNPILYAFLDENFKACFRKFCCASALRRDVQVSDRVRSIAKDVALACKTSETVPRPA
In short: as §2

SMILES	A11: inhibition of radioligand binding (Mouse urotensin (mUR2); FlashPlate)	A2: inhibition of radioligand binding (Human κ-Opioid (KOP); filtration)	A3: inhibition of radioligand binding (Human Melanocortin (MC3); FlashPlate)	A5: inhibition of radioligand binding (Human melanocortin (MC5); FlashPlate)	A7: inhibition of radioligand binding (Human μ-opioid (MOP); FlashPlate)	A6: inhibition of radioligand binding ([1]; [125I]-S36057, FlashPlate)	A8: inhibition of radioligand binding (Human neurokinin (NK1); filtration)	A9: inhibition of radioligand binding ([2]; FlashPlate)	A4: inhibition of radioligand binding (Human Melanocortin (MC4); FlashPlate)	A1: inhibition of radioligand binding (Human δ-opioid (DOP); FlashPlate)	A10: inhibition of radioligand binding (Human opioid (ORL1); FlashPlate)	A11: inhibition of radioligand binding, mouse urotensin (mUR2) (Mouse urotensin (mUR2))	A7: inhibition of radioligand binding, human μ-opioid (MOP) (Human μ-opioid (MOP))	A8: inhibition of radioligand binding, human neurokinin (NK1) (Human neurokinin (NK1))	A9: inhibition of radioligand binding, human neuropeptide Y (NPY-Y1) [2]	A1: inhibition of radioligand binding, human δ-opioid (DOP) (Human δ-opioid (DOP))	A10: inhibition of radioligand binding, human opioid (ORL1) (Human opioid (ORL1))	other results
COCC1OC(OCCc2ccccc2)C(NC(=O)CNC(=N)N)C(OCc2ccc3ccccc3c2)C1O (stereo not shown) [compound 226]	− (“−” indicates less than 50% inhibition at 10 μM)	− (“−” indicates less than 50% inhibition at 10 μM)	+ (“+” indicates greater than 50% inhibition at 10 μM)	+ (“+” indicates greater than 50% inhibition at 10 μM)	− (“−” indicates less than 50% inhibition at 10 μM)	− (“−” indicates less than 50% inhibition at 10 μM)	+ (“+” indicates greater than 50% inhibition at 10 μM)	− (“−” indicates less than 50% inhibition at 10 μM)	+ (“+” indicates greater than 50% inhibition at 10 μM)	− (“−” indicates less than 50% inhibition at 10 μM)	− (“−” indicates less than 50% inhibition at 10 μM)	–	–	–	–	–	–	–
COCC1OC(OCc2ccc3ccccc3c2)C(NC(=O)CNC(=N)N)C(OCc2ccc(Cl)cc2)C1O (stereo not shown) [compound 236]	− (“−” indicates less than 50% inhibition at 10 μM)	− (“−” indicates less than 50% inhibition at 10 μM)	+ (“+” indicates greater than 50% inhibition at 10 μM)	+ (“+” indicates greater than 50% inhibition at 10 μM)	− (“−” indicates less than 50% inhibition at 10 μM)	+ (“+” indicates greater than 50% inhibition at 10 μM)	+ (“+” indicates greater than 50% inhibition at 10 μM)	− (“−” indicates less than 50% inhibition at 10 μM)	+ (“+” indicates greater than 50% inhibition at 10 μM)	− (“−” indicates less than 50% inhibition at 10 μM)	− (“−” indicates less than 50% inhibition at 10 μM)	–	–	–	–	–	–	–
N=C(N)NCCC(=O)N[C@H]1C(OCc2ccc(Cl)cc2)O[C@H](COCc2ccc3ccccc3c2)[C@@H](O)[C@@H]1OCc1ccc2ccccc2c1 (stereo partly shown) [compound 528]	–	–	–	–	–	–	–	–	–	–	–	− (“−” indicates less than 50% inhibition at 10 μM)	− (“−” indicates less than 50% inhibition at 10 μM)	+ (“+” indicates greater than 50% inhibition at 10 μM)	− (“−” indicates less than 50% inhibition at 10 μM)	− (“−” indicates less than 50% inhibition at 10 μM)	− (“−” indicates less than 50% inhibition at 10 μM)	A2: inhibition of radioligand binding, human κ-opioid (KOP) (Human κ-Opioid (KOP); 10 µM): − (“−” indicates less than 50% inhibition at 10 μM); A3: inhibition of radioligand binding, human melanocortin (MC3) (Human Melanocortin (MC3); 10 µM): − (“−” indicates less than 50% inhibition at 10 μM); A5: inhibition of radioligand binding, human melanocortin (MC5) (Human melanocortin (MC5); 10 µM): − (“−” indicates less than 50% inhibition at 10 μM); A6: inhibition of radioligand binding, human melanin-concentrating hormone (MCH1) ([1]; 10 µM): − (“−” indicates less than 50% inhibition at 10 μM); A4: inhibition of radioligand binding, human melanocortin (MC4) (Human Melanocortin (MC4); 10 µM): − (“−” indicates less than 50% inhibition at 10 μM)
N=C(N)NCCC(=O)NC1C(OCc2ccc(Cl)cc2)OC(COCc2ccc(Cl)cc2)C(O)C1OCc1ccc2ccccc2c1 (stereo not shown) [compound 431]	–	–	–	–	–	–	–	–	–	–	–	–	–	–	–	–	–	A11: inhibition of radioligand binding (Mouse urotensin (mUR2); mouse mUR2 membranes): − (“−” indicates less than 50% inhibition at 10 μM); A2: inhibition of radioligand binding (Human κ-Opioid (KOP); human KOP membranes): − (“−” indicates less than 50% inhibition at 10 μM); A3: inhibition of radioligand binding (Human Melanocortin (MC3); human MC3 membranes): + (“+” indicates greater than 50% inhibition at 10 μM); A5: inhibition of radioligand binding (Human melanocortin (MC5); human MC5 membranes): + (“+” indicates greater than 50% inhibition at 10 μM); A7: inhibition of radioligand binding (Human μ-opioid (MOP); human MOP membranes): − (“−” indicates less than 50% inhibition at 10 μM); A6: inhibition of radioligand binding ([1]; [125I]-S36057, human MCH1 membranes): + (“+” indicates greater than 50% inhibition at 10 μM); A8: inhibition of radioligand binding (Human neurokinin (NK1); human NK1 membranes): + (“+” indicates greater than 50% inhibition at 10 μM); A9: inhibition of radioligand binding ([2]; human NPY-Y1 membranes): − (“−” indicates less than 50% inhibition at 10 μM); A4: inhibition of radioligand binding (Human Melanocortin (MC4); human MC4 membranes): + (“+” indicates greater than 50% inhibition at 10 μM); A1: inhibition of radioligand binding (Human δ-opioid (DOP); human DOP membranes): − (“−” indicates less than 50% inhibition at 10 μM); A10: inhibition of radioligand binding (Human opioid (ORL1); human ORL1 membranes): + (“+” indicates greater than 50% inhibition at 10 μM)
NCCC(=O)NC1C(OCc2ccccc2)OC(COCc2ccc3ccccc3c2)C(O)C1OCc1ccccc1 (stereo not shown) [compound 369]	–	–	–	–	–	–	–	–	–	–	–	− (“−” indicates less than 50% inhibition at 10 μM)	− (“−” indicates less than 50% inhibition at 10 μM)	+ (“+” indicates greater than 50% inhibition at 10 μM)	− (“−” indicates less than 50% inhibition at 10 μM)	− (“−” indicates less than 50% inhibition at 10 μM)	− (“−” indicates less than 50% inhibition at 10 μM)	A2: inhibition of radioligand binding, human κ-opioid (KOP) (Human κ-Opioid (KOP)): − (“−” indicates less than 50% inhibition at 10 μM); A3: inhibition of radioligand binding, human melanocortin (MC3) (Human Melanocortin (MC3)): − (“−” indicates less than 50% inhibition at 10 μM); A5: inhibition of radioligand binding, human melanocortin (MC5) (Human melanocortin (MC5)): − (“−” indicates less than 50% inhibition at 10 μM); A6: inhibition of radioligand binding, human melanin-concentrating hormone (MCH1) [1]: − (“−” indicates less than 50% inhibition at 10 μM); A4: inhibition of radioligand binding, human melanocortin (MC4) (Human Melanocortin (MC4)): + (“+” indicates greater than 50% inhibition at 10 μM)
